Measurements: patent US9693556B2, “Herbicidal pyridazinone derivatives” (SYNGENTA LIMITED, priority 2011, dated 2017)

Assays:
Format in all cases: in vivo
[1] = tested on: Amaranthus retoflexus (AMARE); assay: Post-emergence herbicidal glasshouse test on Amaranthus retoflexus; details: post-emergence; 1000 g/h; evaluated after 13 days
Procedure, shortened: (§1)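 Plants sprayed 1 day (pre-emergence) or 8 days (post-emergence) after sowing with compound at 1000 g/h in acetone/water 50:50 with 0.5% Tween 20; glasshouse 24/16° C, 14 h light, 65% humidity. Damage assessed after 13 days, scored 1–5 (5 = 80-100%, 1 = 0-19%).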

Solanum nigrum (SOLNI) [2] = assay: Post-emergence herbicidal glasshouse test on Solanum nigrum; details: post-emergence; 1000 g/h; evaluated after 13 days
Procedure, shortened: as §1

Solanum nigrum (SOLNI) [3] = assay: Pre-emergence herbicidal glasshouse test on Solanum nigrum; details: pre-emergence; 1000 g/h; evaluated after 13 days
Procedure, shortened: as §1

[4] = tested on: Echinochloa crus-galli (ECHCG); assay: Post-emergence herbicidal glasshouse test on Echinochloa crus-galli; details: post-emergence; 1000 g/h; evaluated after 13 days
Procedure, shortened: as §1

[5] = tested on: Echinochloa crus-galli (ECHCG); assay: Pre-emergence herbicidal glasshouse test on Echinochloa crus-galli; details: pre-emergence; 1000 g/h; evaluated after 13 days
Procedure, shortened: as §1

[6] = tested on: Alopecurus myosuroides (ALOMY); assay: Pre-emergence herbicidal glasshouse test on Alopecurus myosuroides; details: pre-emergence; 1000 g/h; evaluated after 13 days
Procedure, shortened: as §1

Setaria faberi (SETFA) [7] = assay: Post-emergence herbicidal glasshouse test on Setaria faberi; details: post-emergence; 1000 g/h; evaluated after 13 days
Procedure, shortened: as §1

[8] = tested on: Ipomoea hederacea (IPOHE); assay: Post-emergence herbicidal glasshouse test on Ipomoea hederacea; details: post-emergence; 1000 g/h; evaluated after 13 days
Procedure, shortened: as §1

[9] = tested on: Alopecurus myosuroides (ALOMY); assay: Post-emergence herbicidal glasshouse test on Alopecurus myosuroides; details: post-emergence; 1000 g/h; evaluated after 13 days
Procedure, shortened: as §1

Setaria faberi (SETFA) [10] = assay: Pre-emergence herbicidal glasshouse test on Setaria faberi; details: pre-emergence; 1000 g/h; evaluated after 13 days
Procedure, shortened: as §1

[11] = tested on: Amaranthus retoflexus (AMARE); assay: Pre-emergence herbicidal glasshouse test on Amaranthus retoflexus; details: pre-emergence; 1000 g/h; evaluated after 13 days
Procedure, shortened: as §1

[12] = tested on: Ipomoea hederacea (IPOHE); assay: Pre-emergence herbicidal glasshouse test on Ipomoea hederacea; details: pre-emergence; 1000 g/h; evaluated after 13 days
Procedure, shortened: as §1

SMILES | POST Application AMARE herbicidal damage (five point scale) [1] | POST Application SOLNI herbicidal damage (five point scale) (Solanum nigrum (SOLNI) [2]) | PRE Application SOLNI herbicidal damage (five point scale) (Solanum nigrum (SOLNI) [3]) | POST Application ECHCG herbicidal damage (five point scale) [4] | PRE Application ECHCG herbicidal damage (five point scale) [5] | PRE Application ALOMY herbicidal damage (five point scale) [6] | POST Application SETFA herbicidal damage (five point scale) (Setaria faberi (SETFA) [7]) | POST Application IPOHE herbicidal damage (five point scale) [8] | POST Application ALOMY herbicidal damage (five point scale) [9] | PRE Application SETFA herbicidal damage (five point scale) (Setaria faberi (SETFA) [10]) | PRE Application AMARE herbicidal damage (five point scale) [11] | PRE Application IPOHE herbicidal damage (five point scale) [12]
Cc1c(-c2cnn(C)c(=O)c2O)ccc(S(C)(=O)=O)c1C1=NOCC1 [Compound 1.018] | 5 (5=80-100% damage) | 5 (5=80-100% damage) | 5 (5=80-100% damage) | 5 (5=80-100% damage) | 5 (5=80-100% damage) | 2 (2=20-39% damage) | 5 (5=80-100% damage) | 5 (5=80-100% damage) | 4 (4=60-79% damage) | 4 (4=60-79% damage) | 5 (5=80-100% damage) | 5 (5=80-100% damage)
C=CCn1c(C(F)(F)F)ccc(-c2cnn(C)c(=O)c2O)c1=O [Compound 9.011] | 5 (5=80-100% damage) | 5 (5=80-100% damage) | 1 (1=0-19% damage) | 5 (5=80-100% damage) | 5 (5=80-100% damage) | 2 (2=20-39% damage) | 5 (5=80-100% damage) | 4 (4=60-79% damage) | 4 (4=60-79% damage) | 3 (3=40-59% damage) | 4 (4=60-79% damage) | 1 (1=0-19% damage)
Cn1ncc(-n2ccc(C(F)(F)F)c(-c3cccc(C#N)c3)c2=O)c(O)c1=O [Compound 7.019] | 5 (5=80-100% damage) | 5 (5=80-100% damage) | 5 (5=80-100% damage) | 5 (5=80-100% damage) | 5 (5=80-100% damage) | 5 (5=80-100% damage) | 5 (5=80-100% damage) | 2 (2=20-39% damage) | 5 (5=80-100% damage) | 5 (5=80-100% damage) | 5 (5=80-100% damage) | 2 (2=20-39% damage)
Cn1ncc(-c2ccc(S(=O)(=O)N3CCOCC3)cc2S(C)(=O)=O)c(O)c1=O [Compound 2.037] | 5 (5=80-100% damage) | 5 (5=80-100% damage) | 5 (5=80-100% damage) | 5 (5=80-100% damage) | 5 (5=80-100% damage) | 3 (3=40-59% damage) | 4 (4=60-79% damage) | 5 (5=80-100% damage) | 3 (3=40-59% damage) | 2 (2=20-39% damage) | 5 (5=80-100% damage) | 4 (4=60-79% damage)
COCc1nc(C(F)(F)F)ccc1-c1cnn(C)c(=O)c1O [Compound 1.073] | 5 (5=80-100% damage) | 5 (5=80-100% damage) | 5 (5=80-100% damage) | 5 (5=80-100% damage) | 5 (5=80-100% damage) | 5 (5=80-100% damage) | 5 (5=80-100% damage) | 5 (5=80-100% damage) | 4 (4=60-79% damage) | 5 (5=80-100% damage) | 5 (5=80-100% damage) | 2 (2=20-39% damage)
CCCCn1cc(C)cc(-c2cnn(C)c(=O)c2O)c1=O [Compound 6.003] | 4 (4=60-79% damage) | 4 (4=60-79% damage) | 1 (1=0-19% damage) | 4 (4=60-79% damage) | 1 (1=0-19% damage) | 1 (1=0-19% damage) | 2 (2=20-39% damage) | 2 (2=20-39% damage) | 2 (2=20-39% damage) | 1 (1=0-19% damage) | 1 (1=0-19% damage) | 1 (1=0-19% damage)
Cc1ccc(-c2c(C(F)(F)F)ccn(-c3cnn(C)c(=O)c3O)c2=O)cc1[N+](=O)[O-] [Compound 7.027] | 5 (5=80-100% damage) | 5 (5=80-100% damage) | 5 (5=80-100% damage) | 5 (5=80-100% damage) | 5 (5=80-100% damage) | 3 (3=40-59% damage) | 5 (5=80-100% damage) | 2 (2=20-39% damage) | 3 (3=40-59% damage) | 3 (3=40-59% damage) | 5 (5=80-100% damage) | 1 (1=0-19% damage)
Cn1ncc(-c2cccn(-c3cccc([N+](=O)[O-])c3)c2=O)c(O)c1=O [Compound 1.147] | 1 (1=0-19% damage) | 3 (3=40-59% damage) | 1 (1=0-19% damage) | 1 (1=0-19% damage) | 1 (1=0-19% damage) | 1 (1=0-19% damage) | 1 (1=0-19% damage) | 1 (1=0-19% damage) | 1 (1=0-19% damage) | 2 (2=20-39% damage) | 2 (2=20-39% damage) | 1 (1=0-19% damage)
Cc1cc(F)ccc1-c1cnn(C)c(=O)c1O [Compound 1.093] | 1 (1=0-19% damage) | 2 (2=20-39% damage) | 1 (1=0-19% damage) | 1 (1=0-19% damage) | 1 (1=0-19% damage) | 1 (1=0-19% damage) | 1 (1=0-19% damage) | 1 (1=0-19% damage) | 1 (1=0-19% damage) | 1 (1=0-19% damage) | 1 (1=0-19% damage) | 1 (1=0-19% damage)
Cc1cc(C#N)ccc1-c1cnn(C)c(=O)c1O [Compound 1.084] | 4 (4=60-79% damage) | 4 (4=60-79% damage) | 1 (1=0-19% damage) | 3 (3=40-59% damage) | 1 (1=0-19% damage) | 1 (1=0-19% damage) | 2 (2=20-39% damage) | 4 (4=60-79% damage) | 1 (1=0-19% damage) | 1 (1=0-19% damage) | 1 (1=0-19% damage) | 1 (1=0-19% damage)
